Experimental data taken from patent US20130281313A1, “PROGNOSTIC AND/OR PREDICTIVE BIOMARKERS AND BIOLOGICAL APPLICATIONS THEREOF” (INSTITUT GUSTAVE ROUSSY, priority 2010, published 2013).

Legend:
[1] = system: CDDP-resistant A549 clones (A549 #1-3), HCC827, H1299, H1650, H1975, HeLa, U2OS and WT HCT 116 cells; experiment: Cytofluorometric assessment of cell death, CDDP alone or combined with PN, panel of cell lines; format: cell-based, human; conditions: sub-apoptotic dose of CDDP alone or combined with 2.5 mM PN
Excerpt: (A-C) Cytofluorometric assessment of cell death induced by the indicated sub-apoptotic dose of cisplatin (CDDP) alone or combined with PN in 3 distinct CDDP-resistant A549 clones (A549 #1-3, A), in 4 non-small cell lung cancer (NSCLC) cell lines other than A549 (HCC827, H1299, H1650 and H1975 cells, B), in cervical carcinoma HeLa cells, in osteosarcoma U2OS cells as well as in wild type (WT) or TP53^−/− colon carcinoma HCT 116 cells (C).
Unless otherwise specified, chemicals were purchased from Sigma-Aldrich (St. Louis, USA), culture media and supplements for cell culture from Gibco-Invitrogen (Carlsbad, USA) and plasticware from Corning (Corning, USA). Anti-human interleukin 6 (IL6, goat antiserum #AB-206-A) and IL6 receptor (IL6R, goat antiserum #AB-227-A) neutralizing antibodies were purchased by R&D Systems (Minneapolis, USA). Orlistat (Xenical®) was obtained from Roche (Basel, Switzerland). […]
To measure apoptosis-related parameters, living cells were labeled for 30 min at +37° C. with 40 nM 3,3′dihexyloxalocarbocyanine iodide (DiOC6(3), from Molecular Probes-Invitrogen, Eugene, USA), which quantifies the mitochondrial transmembrane potential (Δψm), plus 1 μg/mL propidium iodide (PI), which only accumulates in cells with ruptured plasma membrane {Galluzzi, 2009; Galluzzi, 2008; Galluzzi, 2007}. […]

A549 cells = experiment: Cell cycle distribution (PI staining, cytofluorometry); format: cell-based, human; conditions: 10 μM CDDP alone or with PN and/or NAC
Experimental: To measure apoptosis-related parameters, living cells were labeled for 30 min at +37° C. with 40 nM 3,3′dihexyloxalocarbocyanine iodide (DiOC6(3), from Molecular Probes-Invitrogen, Eugene, USA), which quantifies the mitochondrial transmembrane potential (Δψm), plus 1 μg/mL propidium iodide (PI), which only accumulates in cells with ruptured plasma membrane {Galluzzi, 2009; Galluzzi, 2008; Galluzzi, 2007}. To assess cell cycle distribution, cells were collected, fixed by gentle vortexing in ice-cold 80% (v/v) ethanol (Carlo Erba Reagents, Milano, Italy) and stained with 50 μg/mL PI in 0.1% (w/v) D-glucose in PBS supplemented with 1 μg/mL (w/v) RNAse A {Mondragon, 2009; Mouhamad, 2007}. All cytofluorometric determinations were carried out a FACSCalibur or a FACScan cytofluorometer (BD Biosciences, San Jose, USA) equipped with a 70 μm nozzle.
First line statistical analysis of cytofluorometric results was performed by using the CellQuest™ software (BD Biosciences), by gating on the events characterized by normal forward scatter and side scatter parameters. Apoptosis- and cell cycle-related data were further analyzed with Microsoft Excel (Microsoft Co., Redmond, USA) and statistical significance was assessed by means of two-tailed Student's t test (p<0.05).

In the case of Cc1ncc(CO)c(CO)c1O [PN, pyridoxine], the “chemosensitization to CDDP in other cancer cell lines” value [1] is reported as “exerted chemosensitizing effects” and the “cell cycle arrest induced by CDDP” value (A549 cells) is reported as “not affected by the presence of PN”.
